Source: patent US20260184807A1, “Methods for Treating Rheumatoid Arthritis Using a Syndecan-1 Inhibitor or Syntenin-1 Inhibitor” (The United States Government as represented by the …, priority 2022, published 2026)

Test system: RA ST explants
Assay: Rheumatoid arthritis explants stimulated with Syntenin-1 (qRT-PCR, ELISA)
Type: cell-based, human
Conditions: Syntenin-1 5000 ng/ml 6-8 h, mTOR1i 1 μM
Description: FIGS. 19A-R show Syntenin1-induced metabolic activity fine-tunes transcription of angiogenic and inflammatory factors in RA ST explants. […] RA STs were stimulated with 1000 ng/ml Syntenin-1 for 6-8 h. Synovial tissues were harvested for transcriptome analysis by qRT-PCR and supernatants were used for protein quantification by ELISA. The transcription level of JAG1 (FIG. 19F), Notch1 (FIG. 19G), VEGF (FIG. 19H), VEGFR1 (FIG. 19I), and RAPTOR (FIG. 19J) was quantified by real-time RT-PCR, n=6-8. RA explants were untreated or stimulated with 5000 ng/ml Syntenin-1 in the presence or absence of SDC1-Ab (1:100), HIF1αi (2 μM), or mTOR1i (IμM) for 6-8 h. The transcription levels of RAPTOR (FIG. 19K, n=3), VEGF (FIG. 19L, n=5), IL-1β (FIG. 19M, n=8), CCL5 (FIG. 19N, n=6), IL-6 (FIG. 19O, n=6), IL-8 (FIG. 19P, n=6), CCL2 (FIG. 19Q, n=8) were evaluated by qRT-PCR or ELISA. […] Data are presented as mean±SEM: significant differences were determined by the Mann-Whitney test, 2way ANOVA, or one-way ANOVA. *p<0.05, **p<0.01, ***p<0.001, ****p<0.0001.
RheumatoidArthritis Explants. RA ST (30 mg) was cut into small pieces to allow proper access to stimuli and were starved o/n in 0% FBS RPMI with or without SDC1-Ab (1:100), mTOR1i (1 μM), and HIF1αi ([…]). […] Tissues were harvested for transcriptome analysis and supernatants were used for protein quantification by ELISA.

Structure (SMILES): CO[C@H]1C[C@@H]2CC[C@@H](C)[C@@](O)(O2)C(=O)C(=O)N2CCCC[C@H]2C(=O)O[C@H]([C@H](C)C[C@@H]2CC[C@@H](OCCO)[C@H](OC)C2)CC(=O)[C@H](C)/C=C(\C)[C@@H](O)[C@@H](OC)C(=O)[C@H](C)C[C@H](C)/C=C/C=C/C=C/1C [mTORi, Everolimus]
- CCL2 transcription and TNF secretion (FIGS. 19Q-R): intercepted
- Syntenin-1-enriched RAPTOR expression (HIF1αi 2 μM, FIG. 19K): suppressed
